Assay results: ChEMBL document CHEMBL5393441, “Bicyclic heterocyclic compounds as inhibitors ofbcdin3d activity” (2022)
Active and inactive are the calls of the source. The rule behind the calls is not given here.

Experiments:
[1] = target: T1, RNA 5'-monophosphate methyltransferase (Homo sapiens, UniProt Q7Z5W3); assay: Binding affinity towards N-terminal ePL-tagged BCDIN3D (unknown origin) transfected in human A549 cells preincubated for 1 hr and measured by InCellPulse thermal stability assay; format: cell-based
T1 sequence (Q7Z5W3 whole entry): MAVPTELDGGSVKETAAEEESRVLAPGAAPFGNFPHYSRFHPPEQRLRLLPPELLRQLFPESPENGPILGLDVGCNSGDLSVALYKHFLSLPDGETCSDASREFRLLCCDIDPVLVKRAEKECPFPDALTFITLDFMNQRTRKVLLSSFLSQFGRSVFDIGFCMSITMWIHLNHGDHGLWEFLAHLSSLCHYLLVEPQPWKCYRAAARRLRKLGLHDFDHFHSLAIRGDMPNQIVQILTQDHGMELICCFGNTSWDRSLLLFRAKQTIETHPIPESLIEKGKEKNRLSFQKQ

[2] = target: T1, RNA 5'-monophosphate methyltransferase; assay: Inhibition of BCDIN3D (unknown origin) using mini-helix and SAM as substrate incubated for 1 hr by RapidFire High Throughput mass spectrometry
[3] = target: T2, RNA 5'-monophosphate methyltransferase (Homo sapiens) (UniProt Q7Z5W3); assay: Inhibition of BCDIN3D in activated CD4+ T cells isolated from human PBMC stimulated with anti-CD3/CD28 and restimulated with PMA and ionomycin for 4 hrs in the presence of brefeldin A assessed as reduction in IFN-gamma production at 100 to 500 nM; format: cell-based; details: T cell, dose 100-500 nM
T2 sequence (whole entry): T1 sequence (Q7Z5W3 whole entry)

Mus musculus = assay: Antiinflammatory activity in sheep red blood cells (SRBCs)-induced delayed hypersensitivity male CD-1/ICR mouse model at 30 mg/kg administered once daily for 7 days; format: functional, organism-based; details: time 7.0 day

SMILES | IC50 [1] [nM] | IC50 [2] [nM] | inhibition [3] | Activity (Mus musculus)
CNc1nc(NC[C@](C)(N)c2ccccc2)nc2c1cnn2C | 10800 | 7650 |  | 
Cc1cc(Nc2nc(NCC(N)CF)nc3c2cnn3C)ccc1Cl (stereo not drawn) | 5500 | 6170 |  | 
Cc1ccc(CNc2nc(NCCN)nc3c2cnn3C)cc1Cl | 6460 | 1650 |  | 
Cn1ncc2c(Nc3ccc(C(F)(F)F)cc3)nc(NCC3(N)COC3)nc21 | 6670 |  |  | 
Cn1ncc2c(Nc3cc(F)cc(F)c3)nc(NCC3(N)CC3)nc21 | 4650 | 1000 |  | 
COc1cc(Nc2nc(NCC3(N)CC3)nc3c2cnn3C)cc(OC)c1 | 2990 | 1260 |  | 
Cn1ncc2c(Nc3ccc(C(F)(F)F)nc3)nc(NC[C@@](C)(N)c3ccccc3)nc21 | 133 | 38.1 |  | 

Second part, led by results:

IC50 [1] [nM] | IC50 [2] [nM] | inhibition [3] | SMILES | Activity (Mus musculus)
889 | 189 |  | Cn1ncc2c(NC34CC(C3)C4)nc(NCC(N)c3ccccc3)nc21 (stereo not drawn) | 
34 | 17 |  | Cn1ncc2c(NCC3CC(C(F)(F)F)C3)nc(NC[C@H](N)c3ccccc3)nc21 (stereo partly drawn) | 
 |  | Active | Cn1ncc2c(NC(C)(C)C)nc(NC[C@H](N)c3ccccc3)nc21 | Active
 |  | Active | Cn1ncc2c(Nc3ccc(Cl)cc3)nc(NC[C@H](N)c3ccccc3)nc21 | Active
580 | 450 |  | Cn1ncc2c(NC3CCC(F)(F)C3)nc(NC[C@H](N)c3ccccc3)nc21 (stereo partly drawn) | 
